# Reference: patent publication US20250320213A1, “Nitrogen-Containing Heterocyclic Compounds” (Pfizer Inc., priority 2024, published 2025)
# pEC50, pIC50: −log10 of the molar value. Like-named read-outs stand apart in the source and are kept apart here.
# Tests used:
# [1] = system: CCL17 secretion in peripheral human whole blood; assay: Human Whole Blood (HWB) CCL17 TR-FRET Assay (IL-13 stimulated CCL17 secretion); type: cell-based
# In short: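 Compounds are titrated (11 points, 3-fold, duplicate) into fresh heparinized human whole blood and held 2 h at 37 °C before IL-13 challenge (10 ng/mL final). After 48 h at 37 °C, serum CCL17 is measured by TR-FRET sandwich assay and IC50 values are calculated.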
# STAT6 = target: T1, STAT6 (Homo sapiens, UniProt P42226); assay: STAT6 Reporter Luciferase Assay (IL-13 stimulated HaCaT keratinocyte NanoLuc reporter cells); type: cell-based; settings: read-out: Reporter EC50
# T1 construct: stably transfected HaCaT keratinocyte cell line, which expresses NanoLuc luciferase reporter gene under the transcriptional control of the STAT6 responsive promoter; endogenous in cells; host or cells: HaCaT keratinocyte reporter cell line (stably transfected with a NanoLuc reporter)
# T1 sequence (P42226 1-847): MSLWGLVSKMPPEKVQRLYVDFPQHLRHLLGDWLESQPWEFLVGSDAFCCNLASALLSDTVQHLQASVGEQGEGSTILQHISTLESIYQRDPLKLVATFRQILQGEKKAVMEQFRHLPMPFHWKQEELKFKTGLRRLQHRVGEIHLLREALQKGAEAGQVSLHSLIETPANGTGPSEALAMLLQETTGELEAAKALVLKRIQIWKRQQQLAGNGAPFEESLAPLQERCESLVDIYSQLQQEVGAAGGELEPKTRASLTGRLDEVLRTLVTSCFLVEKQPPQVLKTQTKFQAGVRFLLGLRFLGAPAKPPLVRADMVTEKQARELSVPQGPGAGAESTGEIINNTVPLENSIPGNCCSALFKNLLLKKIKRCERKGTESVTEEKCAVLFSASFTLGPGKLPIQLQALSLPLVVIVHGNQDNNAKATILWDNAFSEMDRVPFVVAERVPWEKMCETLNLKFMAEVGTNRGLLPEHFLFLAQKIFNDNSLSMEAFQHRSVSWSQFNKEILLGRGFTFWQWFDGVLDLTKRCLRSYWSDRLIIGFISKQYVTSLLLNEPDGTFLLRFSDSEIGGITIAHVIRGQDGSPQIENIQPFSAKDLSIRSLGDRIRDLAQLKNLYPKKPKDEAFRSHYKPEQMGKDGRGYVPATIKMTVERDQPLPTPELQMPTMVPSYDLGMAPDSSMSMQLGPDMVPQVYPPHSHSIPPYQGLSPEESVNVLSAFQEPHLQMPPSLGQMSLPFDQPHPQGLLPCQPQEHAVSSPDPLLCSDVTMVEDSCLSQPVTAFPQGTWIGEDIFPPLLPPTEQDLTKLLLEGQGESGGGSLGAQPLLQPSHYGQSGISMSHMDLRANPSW
# In short: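 Stably transfected HaCaT cells carrying NanoLuc under the STAT6-responsive IL-13Ra2 promoter were pre-treated with compound (11-point, 4-fold series, duplicate) for 2 h at 37 °C, then stimulated with 0.12 nM IL-13 for 4 h. Nano-Glo luminescence was read after 15 min.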
# [2] = Homo sapiens, 48 h, human whole blood, IL-13 stimulated
# [3] = IL-13 stimulated HaCaT STAT6 NanoLuc reporter cells
# [4] = Homo sapiens, 48 h, inhibition of CCL17 secretion in human whole blood, 10 ng/mL IL13, 48 hours
# [5] = STAT6 NanoLuc luciferase reporter, IL-13 stimulated HaCaT keratinocyte cells
# [6] = Homo sapiens, 48 h, human whole blood, IL-13 10 ng/mL
# [7] = Homo sapiens, 48 h, human whole blood, 10 ng/mL IL13, 48 hours
SMILES,"pIC50 [1, 2]",pEC50 (STAT6; [3]),other results
"CC(C)n1nc(C(=O)NCc2ccc(NC(=O)N(C)C)cc2)c2c1CCN(c1ccc(C3CCCCO3)cn1)C2 (racemic) [Example 339, rac-(R)-N-(4-(3,3-dimethylureido)benzyl)-1-isopropyl-5-(5-(tetrahydro-2H-pyran-2-yl)pyridin-2-yl)-4,5,6,7-tetrahydro-1H-pyrazolo[4,3-c]pyridine-3-carboxamide]",< 4.64,5.18,–
"CC(C)n1nc(C(=O)NCc2ccc(NC(=O)N(C)C)cc2)c2c1CCN(c1ccc(N3CC(CO)OC3=O)cn1)C2 (racemic) [Example 80, rac-(R)-N-(4-(3,3-dimethylureido)benzyl)-5-(5-(5-(hydroxymethyl)-2-oxooxazolidin-3-yl)pyridin-2-yl)-1-isopropyl-4,5,6,7-tetrahydro-1H-pyrazolo[4,3-c]pyridine-3-carboxamide]",–,–,"pIC50 [1, 4]: < 4.52; pEC50 (STAT6; [5]): < 5.00"
"CC(C)n1nc(C(=O)NCc2ccc(-c3ncc[nH]3)cc2)c2c1CCN(c1ccc(N3CCCC3=O)cn1)C2 [Example 38, N-(4-(1H-imidazol-2-yl)benzyl)-1-isopropyl-5-(5-(2-oxopyrrolidin-1-yl)pyridin-2-yl)-4,5,6,7-tetrahydro-1H-pyrazolo[4,3-c]pyridine-3-carboxamide]",–,–,"pIC50 [1, 4]: 5.79; pEC50 (STAT6; [5]): 7.14"
"CC(C)n1nc(C(=O)NCc2ccc(NC(N)=O)cc2)c2c1CCN(c1ccc(C(=O)N(C)C)cn1)C2 [Example 133, 5-(5-(dimethylcarbamoyl)pyridin-2-yl)-1-isopropyl-N-(4-ureidobenzyl)-4,5,6,7-tetrahydro-1H-pyrazolo[4,3-c]pyridine-3-carboxamide]",–,–,"pIC50 [1, 4]: 7.32; pEC50 (STAT6; [5]): 7.55"
"CC(C)n1nc(C(=O)NCc2ccc(NC(=O)N3CCO[C@@H](CO)C3)cc2)c2c1CCN(c1ccc(C(=O)N(C)C)cn1)C2 [Example 167, (R)-N-(4-((5-(5-(dimethylcarbamoyl)pyridin-2-yl)-1-isopropyl-4,5,6,7-tetrahydro-1H-pyrazolo[4,3-c]pyridine-3-carboxamido)methyl)phenyl)-2-(hydroxymethyl)morpholine-4-carboxamide]",–,–,"pIC50 [1, 4]: 6.81; pEC50 (STAT6; [5]): 7.54"
"CC(C)n1nc(C(=O)NCc2ccc(NC(=O)N(C)C)cc2)c2c1C(C)(C)CN(c1ccc(C(=O)N(C)C)cn1)C2 [Example 247, 5-(5-(dimethylcarbamoyl)pyridin-2-yl)-N-(4-(3,3-dimethylureido)benzyl)-1-isopropyl-7,7-dimethyl-4,5,6,7-tetrahydro-1H-pyrazolo[4,3-c]pyridine-3-carboxamide]",8.05,9.00,–
"CC(C)n1nc(C(=O)NCc2ccc(NC(=O)N(C)C)cc2)c2c1C[C@H](C)N(c1ncc(C(=O)N(C)C)cn1)C2 [Example 452, (S)-5-(5-(dimethylcarbamoyl)pyrimidin-2-yl)-N-(4-(3,3-dimethylureido)benzyl)-1-isopropyl-6-methyl-4,5,6,7-tetrahydro-1H-pyrazolo[4,3-c]pyridine-3-carboxamide]",7.80,8.52,–
"CC(C)n1nc(C(=O)NCc2ccc(-c3cnn(C)c3)cc2)c2c1[C@@H](C)CN(c1ccc(C(=O)N(C)C)cc1)C2 [Example 732, (S)-5-(4-(dimethylcarbamoyl)phenyl)-1-isopropyl-7-methyl-N-(4-(1-methyl-1H-pyrazol-4-yl)benzyl)-4,5,6,7-tetrahydro-1H-pyrazolo[4,3-c]pyridine-3-carboxamide]",–,7.06,"pIC50 [1, 6]: 5.51"
"CN(C)C(=O)Nc1ccc(CNC(=O)c2nn(C)c3c2CN(c2ccc(C(=O)N(C)C)cn2)C2(CC2)C3)cc1 [Example 400, 5′-(5-(dimethylcarbamoyl)pyridin-2-yl)-N-(4-(3,3-dimethylureido)benzyl)-1′-methyl-1′,4′,5′,7′-tetrahydrospiro[cyclopropane-1,6′-pyrazolo[4,3-c]pyridine]-3′-carboxamide]",5.59,5.98,–
"CC(C)n1nc(C(=O)NCc2ccc(NC(=O)N3CCN(C)CC3)cc2)c2c1[C@@H](C)CN(c1ccc(C(=O)N(C)C)cn1)C2 [Example 470, (S)-5-(5-(dimethylcarbamoyl)pyridin-2-yl)-1-isopropyl-7-methyl-N-(4-(4-methylpiperazine-1-carboxamido)benzyl)-4,5,6,7-tetrahydro-1H-pyrazolo[4,3-c]pyridine-3-carboxamide]",8.30,9.00,–
"CC(C)n1nc(C(=O)NCc2ccc(NC(=O)N(C)C)cc2)c2c1CCN(c1ccc(C(=O)N(C)C)cn1)[C@H]2C (single isomer, unassigned) [Example 507]",5.78,6.87,–
"CCn1nc(C(=O)NCc2ccc(NC(=O)N(C)C)nc2)c2c1[C@@H](C)CN(c1ccc(C(=O)N(C)C)cn1)C2 [Example 323, (S)-5-(5-(dimethylcarbamoyl)pyridin-2-yl)-N-((6-(3,3-dimethylureido)pyridin-3-yl)methyl)-1-ethyl-7-methyl-4,5,6,7-tetrahydro-1H-pyrazolo[4,3-c]pyridine-3-carboxamide]",7.59,8.30,–
"CC(C)n1nc(C(=O)NCc2ccc(NC(=O)N3CC[C@@](C)(N)C3)cc2)c2c1[C@@H](C)CN(c1ccc(C(=O)N(C)C)cc1)C2 [Example 572, (S)-N-(4-((R)-3-amino-3-methylpyrrolidine-1-carboxamido)benzyl)-5-(4-(dimethylcarbamoyl)phenyl)-1-isopropyl-7-methyl-4,5,6,7-tetrahydro-1H-pyrazolo[4,3-c]pyridine-3-carboxamide]",–,8.52,"pIC50 [1, 7]: 7.70"
"CNC1CN(C(=O)Nc2ccc(CNC(=O)c3nn(C(C)C)c4c3CN(c3ccc(C(=O)N(C)C)cc3)C[C@@H]4C)cc2F)C1 [Example 597, (S)-5-(4-(dimethylcarbamoyl)phenyl)-N-(3-fluoro-4-(3-(methylamino)azetidine-1-carboxamido)benzyl)-1-isopropyl-7-methyl-4,5,6,7-tetrahydro-1H-pyrazolo[4,3-c]pyridine-3-carboxamide]",–,8.40,"pIC50 [1, 7]: 7.55"
"CCn1nc(C(=O)NCc2ccc(C(N)=O)cc2)c2c1[C@@H](C)CN(c1ncc(N3CCCC3=O)cn1)C2 [Example 483, (S)-N-(4-carbamoylbenzyl)-1-ethyl-7-methyl-5-(5-(2-oxopyrrolidin-1-yl)pyrimidin-2-yl)-4,5,6,7-tetrahydro-1H-pyrazolo[4,3-c]pyridine-3-carboxamide]",7.20,7.48,–
"CC(C)n1nc(C(=O)NCc2ccc(NC(=O)N(C)C)cc2)c2c1CCN(c1ncc(C(=O)N(C)C)cn1)C2 [Example 35, 5-(5-(Dimethylcarbamoyl)pyrimidin-2-yl)-N-(4-(3,3-dimethylureido)benzyl)-1-isopropyl-4,5,6,7-tetrahydro-1H-pyrazolo[4,3-c]pyridine-3-carboxamide]",–,–,"pIC50 ([1]; inhibition of CCL17 secretion in human whole blood, 10 ng/mL IL13, 48 hours): 7.33; pEC50 (STAT6; [5]): 8.05"
"Cc1cncc(-c2ccc(CNC(=O)c3nn(C(C)C)c4c3CN(c3ccc(C(=O)N(C)C)cc3)C[C@H]4C)cc2)n1 [Example 724, (R)-5-(4-(dimethylcarbamoyl)phenyl)-1-isopropyl-7-methyl-N-(4-(6-methylpyrazin-2-yl)benzyl)-4,5,6,7-tetrahydro-1H-pyrazolo[4,3-c]pyridine-3-carboxamide]",–,6.89,"pIC50 [1, 6]: 5.30"
